Source: patent EP1102770B1, “PARAMAGNETIC 3-,8-SUBSTITUTED DEUTEROPORPHYRIN DERIVATIVES, PHARMACEUTICAL PREPARATIONS CONTAINING SAME, METHOD FOR PRODUCING SAME AND THEIR USE IN MAGNETIC RESONANCE IMAGING OF NECROSIS AND INFARCTION” (SCHERING AKTIENGESELLSCHAFT, priority 1998, dated 2000)
Where “and” joins values, the source holds several entries; their conditions need not be identical. Equal values may be shown once.

Key:
[1] = tested on: humanem Coloncarcinom (HT-29 P9); assay: Effect of light (ED50) on a tumour cell culture in the presence of porphyrins (phototoxicity); type: cell-based, human; details: concentration at which about half of the cells are no longer vital, 3 days xenon lamp (8,5 k Lux, UV filter), 2 x 30 min daily, count on day 4
Protocol: In Kulturflaschen von 25 ml Inhalt wird eine Zellkultur von humanem Coloncarcinom (HT-29 P9) 3 Tage bei 37°C vermehrt. Die Kulturen werden in zwei Grupen aufgeteilt und mit Lösungen der Prüfsubstanzen (50 mmol Porphyrineinheit (PE) /l, verdünnt mit fötalem Kälberserum) in zunehmender Menge (0; 1,5; 5; 8,5; 12; 15,5; 19 µmol PE/l) versetzt. Die Proben werden drei Tage lang mit einer Xenon-Lampe (8,5 k Lux, UV-Filter) bestrahlt. Die erste Gruppe erhält täglich 2 Bestrahlungen von je 30 Minuten Dauer im Abstand von 4 Stunden. Die restliche Zeit bleibt sie im Dunkeln im Brutschrank. Die zweite Gruppe wird nicht belichtet und bleibt die gesamte Zeit im Dunkeln im Brutschrank. Am vierten Tag wird das Zellwachstum durch Lebend-Tot-Färbung und Zählung mit der Zählkammer bestimmt.
In der Tabelle ist die Konzentration angegeben, bei der etwa die Hälfte der Zellen nicht mehr vital ist.

[2] = tested on: Tieren mit induziertem Myocardinfarkt; assay: MRI experiments in animals with induced myocardial infarction (necrosis-selective enhancement); type: in vivo, Ratten (Han.Wistar, Schering SPF); details: for Enhancement im nekrotischen Areal des Myocards: single i.v. dose 100 µmol Gd / kg KGW ca. 24 h after infarct induction, middle and late phase, 2.5 to ca. 24 h p. i., MRI 2 Tesla; for Abgrenzung des nekrotischen Areals im MRI-Experiment, Korrelation mit histologischer NBT ("Vital"-) Färbung: single i.v. dose 100 µmol Gd / kg KGW, heart prepared ca. 24 h p. i.
Protocol: Das nekroseselektive Enhancement wurde nach einmaliger intravenöser Applikation der Substanz aus Beispiel 1d an Tieren mit experimentell erzeugtem Myocardinfarkt im MRI Experiment untersucht. Die Induktion der Herzinfarkte erfolgte an narkotisierten (Domitor®/Dormicum®, i.m.) Ratten (Han.Wistar, Schering SPF, ca.300 g KGW) durch Okklusion der linken Coronararterie. Die Kontrastmittelapplikation (Dosis: 100 µmol Gd / kg KGW) erfolgte ca. 24 h nach der Infarktinduktion. Die Tiere wurden vor und bis 24 h nach KM-Applikation MR-tomographisch (SISCO SIS 85, 2 Tesla; SE-Sequenz, EKG-getriggert, TR: ca. 400 ms, TE: 10 ms, nt=4, ni=256, FOV: 7*7 cm, SD ≈ 3 mm, je 1 Schicht axial) untersucht. Ca. 24 h p. i. wurden die Tiere - im MRT - durch eine Narkotikaüberdosis getötet und zusätzlich ein MRI-Experiment am "frischtoten" Tier (--> keine Bewegungsartefakte) durchgeführt. Zur Verifizierung des Infarktes (Größe und Lage) wurde das Herz präpariert, in Scheiben geschnitten und anschließend eine NBT ("Vital-") Färbung durchgeführt. Vor KM-Applikation ist das infarzierte Areal nicht vom "normalen" Myocard zu unterscheiden, da sich beide Areale isointens darstellen (s. Abb.: 1a). Direkt nach der Substanzapplikation stellt sich der nicht-perfundierte Anteil des Myocards als hypointenses Areal dar (s. Abb.: 1b). Ab ca. 30 min p. i. steigt die Signalintensität im nicht-perfundierten Areal etwas an bzw. die Größe des abgegrenzten (Signalarmen) Areals nimmt ab (--> langsame Diffusion in die Nekrose).
Das nekroseselektive Enhancement wurde nach einmaliger intravenöser Applikation der Substanz aus Beispiel 2d an Tieren mit experimentell erzeugtem Myocardinfarkt im MRI Experiment untersucht. Die Induktion der Herzinfarkte erfolgte an narkotisierten (Domitor®/Dormicum®, i.m.) Ratten (Han.Wistar, Schering SPF, ca.300 g KGW) durch Okklusion der linken Coronararterie. Die Kontrastmittelapplikation (Dosis: 100 µmol Gd / kg KGW ) erfolgte ca. 24 h nach der Infarktinduktion. Die Tiere wurden vor und bis 3 h (kontinuierlich) sowie 24 h nach KM-Applikation MR-tomographisch (SISCO SIS 85, 2 Tesla; SE-Sequenz, EKG-getriggert, TR: ca. 400 ms, TE: 10 ms, nt=4, ni=256, FOV: 7*7 cm, SD ≈ 3 mm, je 1 Schicht axial) untersucht. Ca. 24 h p. i. wurden die Tiere - im MRT - durch eine Narkotikaüberdosis getötet und ein MRI-Experiment am "frischtoten" Tier (--> keine Bewegungsartefakte) durchgeführt. Zur Verifizierung des Infarktes (Größe und Lage) wurde das Herz präpariert, in Scheiben geschnitten und anschließend eine NBT (nitro blue tetrazolium chlorid) Färbung durchgeführt. Vor KM-Applikation ist das infarzierte Areal nicht vom "normalen" Myocard zu unterscheiden, da sich beide Areale isointens darstellen (s. Abb.: 2a). Direkt nach der Substanzapplikation stellt sich der nicht-perfundierte Anteil des Myocards als hypointenses Areal dar (s. Abb.: 2b). Ab ca. 30 min p. i. steigt die Signalintensität im nicht-perfundierten Areal etwas an bzw. die Größe des abgegrenzten (signalarmen) Areals nimmt ab (--> langsame Diffusion in die Nekrose).
Das nekroseselektive Enhancement wurde nach einmaliger intravenöser Applikation der Substanz aus Beispiel 4d an Tieren mit experimentell erzeugtem Myocardinfarkt im MRI Experiment untersucht. Die Induktion der Herzinfarkte erfolgte an narkotisierten (Domitor®/Dormicum®, i. m.) Ratten (Han. Wistar, Schering SPF, ca. 300 g KGW) durch Okklusion der linken Coronararterie. Die Kontrastmittelapplikation (Dosis: 100 µmol Gd / kg KGW) erfolgte ca. 24 h nach der Infarktinduktion. Die Tiere wurden vor und bis 3 h (kontinuierlich) sowie 24 h nach KM-Applikation MR-tomographisch (SISCO SIS 85, 2 Tesla; SE-Sequenz, EKG-getriggert, TR: ca. 400 ms, TE: 10 ms, nt=4, ni=256, FOV: 7*7 cm, SD ≈ 3 mm, je 1 Schicht axial) untersucht. Ca. 24 h p. i. wurden die Tiere - im MRT - durch eine Narkotikaüberdosis getötet und ein MRI-Experiment am "frischtoten" Tier (--> keine Bewegungsartefakte) durchgeführt. […]

[3] = In vivo comparison of blood kinetics with Dy-DTPA; details: for Blutkonzentrationen: rats, i.v. 82 µmol Gd/kg
[4] = Determination of relaxivity R1; type: physicochemical; details: Wasser; 40°C; 0,47 Tesla; Minispec PC 20; n=3
Protocol: • Bestimmung der Relaxivity R1 [L·mmol^-1 ·s^-1] • Gerät: Minispec PC 20 • Messung bei 40°C; 0,47 Tesla • T1-Sequenz: 180°-TI-90°, Inversion Recovery

[5] = Acute tolerance after single intravenous administration; type: in vivo, SPF-Mäuse (NMRI, Schering); details: mouse, single i.v., observation 7 days
Protocol: Es soll die Akute Verträglichkeit der Titelverbindung aus Beispiel 2d nach einmaliger intravenöser Gabe an der Maus untersucht werden.
Testmethode: Methode KM D1, 5. Auflage Tiermaterial: SPF-Mäuse (NMRI, Schering), 18-22 g, f:m = 50:50 Injektionsgeschwindigkeit: 2 ml/min. Kriterium der Wirksamkeit: exitus letalis Beobachtungszeitraum: 7 Tage

[6] = plasma, rats n=3, i.v., 82 µmol Gd/kg (Verbindung 1), 103 µmol Dy/kg (Verbindung 2)

Substance	ED50 [1]	Enhancement im nekrotischen Areal des Myocards [2]	Abgrenzung des nekrotischen Areals im MRI-Experiment, Korrelation mit histologischer NBT ("Vital"-) Färbung [2]	Vd ss [3, 6] [L/kg]	α-t½ [3, 6] [min]	β-t½ [3, 6]	Blutkonzentrationen ([3]; after 120 min)	Blutkonzentrationen ([3]; after three minutes)	Relaxivity R1 [4] [L/mmol/s]	LD50 ([5]; 2 ml/min, value stated as to be expected) [mmol Gd/kg]	Lebern und Nieren aller überlebenden Tiere [5]
{mu-[{16,16'-[Chloroeisen(III)-7, 12-diethyl-3, 8, 13, 17-tetramethylporphyrin-2, 18-diyl]-bis[3, 6, 9-tris(carboxymethyl)-11,14-dioxo-3, 6, 9, 12, 13-pentaazahexadecanoato]}(8-)]}-digadolinato(2-) [Beispiel 1d]	> 1,25 mmol PE/l	deutliches Enhancement	korreliert sehr gut	0.08 ± 0.00	3.56 ± 1.01	2.88 h and 2.8817 ± 0.646 h	22-25 % der Dosis	56-63 % der Dosis	11.9 ± 1.0	–	–
{mu-[{16,16'-[Kupfer(II)-7, 12-diethyl-3, 8, 13, 17-tetramethylporphyrin-2,18-diyl]-bis[3, 6, 9-tris(carboxymethyl)-11, 14-dioxo-3, 6, 9, 12, 13-pentaazahexadecanoato]}(8-)]}-digadolinato(2-), Dinatrium [Beispiel 4d]	> 1,25 mmol PE/l	deutliches Enhancement	korreliert sehr gut	–	–	–	–	–	11.0 ± 0.1	–	–
{mu-[{16, 16'-(7, 12-Diethyl-3, 8, 13, 17-tetramethylporphyrin-2, 18-diyl]-bis[3,6,9-tris(carboxymethyl)-11, 14-dioxo-3, 6, 9,12, 13-pentaazahexadecanoato]}(8-)]}-digadolinato(2-),-Dinatrium [IV, reference compound]	6,4·10^-3 mmol PE/l	–	–	–	–	–	–	–	9.2 ± 0.1	–	–
{mu-[{16, 16'-[Chloromangan(III)-7, 12-diethyl-3, 8, 13, 17-tetramethylporphyrin-2, 18-diyl]-bis[3, 6, 9-tris(carboxymethyl)-11, 14-dioxo-3, 6, 9, 12, 13-pentaazahexadecanoato]}(8-)]}-digadolinato(2-),-Dinatrium [Beispiel 2d]	> 1,25 mmol PE/l	deutliches Enhancement	korreliert sehr gut	–	–	–	–	–	9.3 ± 0.1	≥ 5	unauffällig
